# Test results reported in patent publication US10947252B2, “Inhibitors of KEAP1-Nrf2 protein-protein interaction” (Janssen Pharmaceutica NV, priority 2018, dated 2021).
# pEC50, pKd: −log10 of the molar value. Counter-ions that a name gives are not always drawn.
# Columns and labels:
# [1] = target: Kelch domain of human KEAP1 (321-624 aa) (Homo sapiens (Human), UniProt Q14145); experiment: KEAP1 KELCH ThermoFluor binding assay; details: KEAP Kelch […], 1,8-ANS, pH 7.0, average of results obtained, read-out: Tf Kd;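 further: Ligand-induced melting temperature shift of E. coli-expressed KEAP1 Kelch protein, Kd estimated from concentration-response curves of ΔTm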
# Sequence of Kelch domain of human KEAP1 (321-624 aa) (Q14145 321-624): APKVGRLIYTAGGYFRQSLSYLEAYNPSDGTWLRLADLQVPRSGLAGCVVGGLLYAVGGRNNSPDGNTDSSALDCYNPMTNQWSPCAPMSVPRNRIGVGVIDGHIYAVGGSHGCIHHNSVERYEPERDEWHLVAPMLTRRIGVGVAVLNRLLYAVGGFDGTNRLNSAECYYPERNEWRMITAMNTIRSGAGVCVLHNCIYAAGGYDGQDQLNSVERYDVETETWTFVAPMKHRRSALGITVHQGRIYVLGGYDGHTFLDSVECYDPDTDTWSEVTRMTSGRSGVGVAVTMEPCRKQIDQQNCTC
# [2] = system: Glo-Response ARE-luc2P HEK293 cell line; experiment: ARE luciferase reporter cell-based assay; details: Homo sapiens, HEK293, 24 h, average of results obtained;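 further: luciferase signal tracks Nrf2 activation of the ARE once compounds disrupt KEAP1-Nrf2 binding, read with One-Glo reagent, DMSO serving as low control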
SMILES,pKd [1],pEC50 [2]
"Cc1ccc([C@@H](c2ccn3c(C(F)(F)F)nnc3c2C)C(C)(C)C(=O)O)nc1CN1CC2(CCOCC2)Oc2ncccc2S1(=O)=O (single isomer, unassigned) [Example 38, (*S)-3-(6-((1′,1′-Dioxido-2,3,5,6-tetrahydrospiro[pyran-4,4′-pyrido[2,3-b][1,4,5]oxathiazepin]-2′(3′H)-yl)methyl)-5-methylpyridin-2-yl)-2,2-dimethyl-3-(8-methyl-3-(trifluoromethyl)-[1,2,4]triazolo[4,3-a]pyridin-7-yl)propanoic Acid]",> 9.00,8.14
"Cc1cc2cc([C@H](CC(=O)O)c3ccc(C)c(CN4C[C@H]5CCCCN5c5ncccc5S4(=O)=O)c3)n(C)c2nn1 (single isomer, unassigned) [Example 445, (*R)-3-(3,7-Dimethyl-7H-pyrrolo[2,3-c]pyridazin-6-yl)-3-(3-(((*R)-5,5-dioxido-7,7a,8,9,10,11-hexahydro-6H-dipyrido[2,1-d:2′,3′-f][1,2,5]thiadiazepin-6-yl)methyl)-4-methylphenyl)propanoic Acid]",> 9.00,6.15
"Cc1ccc([C@H](CC(=O)O)c2ccn3c(C(F)(F)F)nnc3c2C)nc1CN1C[C@@H]2CCCCN2c2ncc(Cl)cc2S1(=O)=O (single isomer, unassigned) [Example 521, (*R)-3-(6-(((*S)-3-Chloro-5,5-dioxido-7,7a,8,9,10,11-hexahydro-6H-dipyrido[2,1-d:2′,3′-f][1,2,5]thiadiazepin-6-yl)methyl)-5-methylpyridin-2-yl)-3-(8-methyl-3-(trifluoromethyl)-[1,2,4]triazolo[4,3-a]pyridin-7-yl)propanoic Acid]",> 9.00,8.71
"Cc1ccc([C@H](CC(=O)O)c2cc(OC3CC3)c3c(c2)nnn3C)cc1CN1C[C@H]2CCCN2c2ncccc2S1(=O)=O (single isomer, unassigned) [Example 5, (*S)-3-(7-Cyclopropoxy-1-methyl-1H-benzo[d][1,2,3]triazol-5-yl)-3-(3-(((R)-5,5-dioxido-7a,8,9,10-tetrahydropyrido[2,3-f]pyrrolo[2,1-d][1,2,5]thiadiazepin-6(7H)-yl)methyl)-4-methylphenyl)propanoic Acid]",9.29,6.96
"Cc1ccc([C@H](c2ccn3c(C(F)(F)F)nnc3c2C)C(C)(C)C(=O)O)cc1CN1CC2(CC2)Oc2ncccc2S1(=O)=O (single isomer, unassigned) [Example 318, (*R)-3-(3-((1′,1′-Dioxidospiro[cyclopropane-1,4′-pyrido[2,3-b][1,4,5]oxathiazepin]-2′(3′H)-yl)methyl)-4-methylphenyl)-2,2-dimethyl-3-(8-methyl-3-(trifluoromethyl)-[1,2,4]triazolo[4,3-a]pyridin-7-yl)propanoic Acid]",5.70,6.22
"Cc1ccc([C@@H](CC(=O)O)c2cc(OC(F)F)c3c(c2)nnn3C)cc1CN1C[C@H]2CCCN2c2ncccc2S1(=O)=O (single isomer, unassigned) [Example 248, (*R)-3-(7-(Difluoromethoxy)-1-methyl-1H-benzo[d][1,2,3]triazol-5-yl)-3-(3-(((R)-5,5-dioxido-7a,8,9,10-tetrahydropyrido[2,3-f]pyrrolo[2,1-d][1,2,5]thiadiazepin-6(7H)-yl)methyl)-4-methylphenyl)propanoic Acid]",> 9.00,7.31
"Cc1ccc([C@H](CC(=O)O)c2ccc3c(nnn3CC3CC3)c2C)cc1CN1CC2(COC2)Oc2ccccc2S1(=O)=O (single isomer, unassigned) [Example 77, (*S)-3-(1-(Cyclopropylmethyl)-4-methyl-1H-benzo[d][1,2,3]triazol-5-yl)-3-(3-((1′,1′-dioxidospiro[benzo[b][1,4,5]oxathiazepin-4,3′-oxetan]-2,(3H)-yl)methyl)-4-methylphenyl)propanoic Acid]",9.38,7.80
"Cc1ccc(C(CC(=O)O)c2ccc3c(nnn3CC3CC3)c2C)cc1CN1C[C@H]2CCCN2c2ncccc2S1(=O)=O (stereo partly drawn) [Example 400, 3-(1-(cyclopropylmethyl)-4-methyl-1H-benzo[d][1,2,3]triazol-5-yl)-3-(3-(((R)-5,5-dioxido-7a,8,9,10-tetrahydropyrido[2,3-f]pyrrolo[2,1-d][1,2,5]thiadiazepin-6(7H)-yl)methyl)-4-methylphenyl)propanoic acid]",> 9.00,8.39
"CCn1nnc2c(C)c(C(CC(=O)O)c3ccc(C)c(CN4C[C@H]5CCCN5c5ncccc5S4(=O)=O)c3)ccc21 (stereo partly drawn) [Example 20, 3-(3-(((R)-5,5-Dioxido-7a,8,9,10-tetrahydropyrido[2,3-f]pyrrolo[2,1-d][1,2,5]thiadiazepin-6(7H)-yl)methyl)-4-methylphenyl)-3-(1-ethyl-4-methyl-1H-benzo[d][1,2,3]triazol-5-yl)propanoic Acid and its Trifluoroacetic Acid Salt]",10.09,8.20
"Cc1ccc([C@H](CC(=O)O)c2ccc3c(nnn3C3CC3)c2C)cc1CN1C[C@@H]2CCCCN2c2ncccc2S1(=O)=O (single isomer, unassigned) [Example 398, (*S)-3-(1-Cyclopropyl-4-methyl-1H-benzo[d][1,2,3]triazol-5-yl)-3-(3-(((*S)-5,5-dioxido-7,7a,8,9,10,11-hexahydro-6H-dipyrido[2,1-d:2′,3′-f][1,2,5]thiadiazepin-6-yl)methyl)-4-methylphenyl)propanoic Acid]",> 9.00,8.85
"Cc1cnc2c(c1)S(=O)(=O)N(Cc1cc(C(CC(=O)O)c3ccn4c(C(F)F)nnc4c3C)ccc1C)C[C@@H]1CCCCN21 (stereo in doubt) [Example 499, 3-(3-(Difluoromethyl)-8-methyl-[1,2,4]triazolo[4,3-a]pyridin-7-yl)-3-(4-methyl-3-(((*S)-3-methyl-5,5-dioxido-7,7a,8,9,10,11-hexahydro-6H-dipyrido[2,1-d:2′,3′-f][1,2,5]thiadiazepin-6-yl)methyl)phenyl)propanoic Acid]",> 9.00,7.89
"Cc1ccc([C@H](c2ccn3c(C(F)(F)F)nnc3c2C)C(C)(C)C(=O)O)cc1CN1C[C@H]2CCCCN2c2ncc(C#N)cc2S1(=O)=O (single isomer, unassigned) [Example 423, (*R)-3-(3-(((*R)-3-cyano-5,5-dioxido-7,7a,8,9,10,11-hexahydro-6H-dipyrido[2,1-d:2′,3′-f][1,2,5]thiadiazepin-6-yl)methyl)-4-methylphenyl)-2,2-dimethyl-3-(8-methyl-3-(trifluoromethyl)-[1,2,4]triazolo[4,3-a]pyridin-7-yl)propanoic Acid]",6.23,6.39
"Cc1ccc([C@H](c2ccn3c(C(F)F)nnc3c2C)C(C)(C)C(=O)O)nc1CN1CC2(CCOCC2)Oc2nc(OCCN3CCCCC3)c(C)cc2S1(=O)=O (single isomer, unassigned) [Example 355, (*R)-3-(3-(Difluoromethyl)-8-methyl-[1,2,4]triazolo[4,3-a]pyridin-7-yl)-2,2-dimethyl-3-(5-methyl-6-((8′-methyl-1′,1′-dioxido-7′-(2-(piperidin-1-yl)ethoxy)-2,3,5,6-tetrahydrospiro[pyran-4,4′-pyrido[2,3-b][1,4,5]oxathiazepin]-2′(3′H)-yl)methyl)pyridin-2-yl)propanoic Acid]",5.51,5.94
"Cc1ccc(C(CC(=O)O)c2ccn3c(C(F)(F)F)nnc3c2C)cc1CN1C[C@H]2CCCCN2c2ncccc2S1(=O)=O (stereo in doubt) [Example 271, 3-(3-(((*R)-5,5-Dioxido-7,7a,8,9,10,11-hexahydro-6H-dipyrido[2,1-d:2′,3′-f][1,2,5]thiadiazepin-6-yl)methyl)-4-methylphenyl)-3-(8-methyl-3-(trifluoromethyl)-[1,2,4]triazolo[4,3-a]pyridin-7-yl)propanoic Acid]",> 9.00,7.64
"Cc1ccc([C@H](c2ccn3c(C(F)F)nnc3c2C)C(C)(C)C(=O)O)cc1CN1CC2(CCOCC2)Oc2nc(OCCN3CCOCC3)ccc2S1(=O)=O (single isomer, unassigned) [Example 580, (*R)-3-(3-(Difluoromethyl)-8-methyl-[1,2,4]triazolo[4,3-a]pyridin-7-yl)-2,2-dimethyl-3-(4-methyl-3-((7′-(2-morpholinoethoxy)-1′,1′-dioxido-2,3,5,6-tetrahydrospiro[pyran-4,4′-pyrido[2,3-b][1,4,5]oxathiazepin]-2′(3′H)-yl)methyl)phenyl)propanoic Acid]",5.78,5.49
"Cc1ccc([C@H](CC(=O)O)c2ccn3c(C(F)F)nnc3c2C)cc1CN1C[C@H]2CCCN2c2ncccc2S1(=O)=O (single isomer, unassigned) [Example 450, (*S)-3-(3-(Difluoromethyl)-8-methyl-[1,2,4]triazolo[4,3-a]pyridin-7-yl)-3-(3-(((R)-5,5-dioxido-7a,8,9,10-tetrahydropyrido[2,3-f]pyrrolo[2,1-d][1,2,5]thiadiazepin-6(7H)-yl)methyl)-4-methylphenyl)propanoic Acid]",> 9.00,7.60
"Cc1ccc([C@H](CC(=O)O)c2ccn3c(C(F)(F)F)nnc3c2C)cc1CN1C[C@H]2CCCCN2c2nc(C(N)=O)ccc2S1(=O)=O (single isomer, unassigned) [Example 205, (*S)-3-(3-(((*R)-2-Carbamoyl-5,5-dioxido-7,7a,8,9,10,11-hexahydro-6H-dipyrido[2,1-d:2′,3′-f][1,2,5]thiadiazepin-6-yl)methyl)-4-methylphenyl)-3-(8-methyl-3-(trifluoromethyl)-[1,2,4]triazolo[4,3-a]pyridin-7-yl)propanoic Acid]",> 9.00,6.89
